Assays:
[1] = test system: pigweed; assay: Test A pre-/postemergence herbicide test; assay type: in vivo, Amaranthus retroflexus; details: for Plant response rating, Pigweed: 0 to 100 scale
In short: (§1)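 Scoring was visual, relative to untreated controls, on a 0–100 scale after about 10 greenhouse days. Preemergence treatment used a directed soil spray over seeded loam/sand; postemergence treatment targeted one- to two-leaf plants of 2–10 cm.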

[2] = test system: wheat; assay: Test A pre-/postemergence herbicide test; assay type: in vivo, Triticum aestivum; details: Postemergence; for Plant response rating, Wheat: 125 g ai/ha, 0 to 100 scale, 0 is no effect, 100 is complete control; for Wheat plant response rating (0 to 100 scale, 0 is no effect, 100 is complete control): 500 g ai/ha
In short: as §1

[3] = test system: blackgrass; assay: Test C pre-/postemergence herbicide test; assay type: in vivo, Alopecurus myosuroides; details: for Blackgrass plant response rating: scale 0 to 100, 0 is no effect and 100 is complete control
In short: (§2)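 Response scores range from 0, meaning no effect, to 100, meaning complete control, assigned visually by comparison with controls roughly two weeks (13 to 15 days) after spraying. Applications were made preemergence to seeded loam–sand soil and postemergence to 1- to 4-leaf plants.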

[4] = test system: ryegrass, Italian; assay: Test C pre-/postemergence herbicide test; assay type: in vivo, Lolium multiflorum
In short: as §2

[5] = test system: galium; assay: Test C pre-/postemergence herbicide test; assay type: in vivo, Galium aparine
In short: as §2

[6] = test system: corn; assay: Test C pre-/postemergence herbicide test; assay type: in vivo, Zea mays
In short: as §2

[7] = test system: morningglory; assay: Test C pre-/postemergence herbicide test; assay type: in vivo, Ipomoea coccinea
In short: as §2

[8] = test system: nutsedge, yellow; assay: Test C pre-/postemergence herbicide test; assay type: in vivo, Cyperus esculentus
In short: as §2

[9] = test system: barnyardgrass; assay: Test C pre-/postemergence herbicide test; assay type: in vivo, Echinochloa crus-galli; details: for Barnyardgrass plant response rating: scale 0 to 100, 0 is no effect and 100 is complete control
In short: as §2

[10] = test system: velvetleaf; assay: Test C pre-/postemergence herbicide test; assay type: in vivo, Abutilon theophrasti
In short: as §2

[11] = 125 g ai/ha, visual rating, 0 no effect, 100 complete control, approximately 10 days, preemergence
[12] = Postemergence, 125 g ai/ha, 0 is no effect, 100 is complete control
[13] = preemergence, 500 g ai/ha, 0 is no effect and 100 is complete control
[14] = Postemergence, 31 g ai/ha, scale 0 to 100 (0 no effect, 100 complete control)
[15] = Postemergence, 62 g ai/ha, scale 0 (no effect) to 100 (complete control)
[16] = Postemergence, 125 g ai/ha, scale 0 to 100 (0 no effect, 100 complete control)
[17] = Postemergence, 250 g ai/ha, scale 0 to 100 (0 no effect, 100 complete control)
[18] = Preemergence, 62 g ai/ha, scale 0 to 100
[19] = Preemergence, 125 g ai/ha, scale 0 to 100 (0 no effect, 100 complete control)
[20] = Preemergence, 31 g ai/ha, scale 0 to 100, 0 is no effect and 100 is complete control
[21] = Preemergence, 62 g ai/ha, scale 0 to 100 (0 no effect, 100 complete control)

## O=C1NCC(c2cccc(OC(F)F)c2)C1C(=O)Nc1cccc(F)c1F (stereo not drawn) [Compound 224]
[1]; [11]
  Plant response rating, Pigweed: 80
[1]; [12]
  Plant response rating, Pigweed: 60
[1]; Postemergence, 500 g ai/ha
  Pigweed plant response rating (0 to 100 scale, 0 is no effect, 100 is complete control): 80
[1]; [13]
  Plant response rating, Pigweed: 80
[2]
  Plant response rating, Wheat: 50
  Wheat plant response rating (0 to 100 scale, 0 is no effect, 100 is complete control): 60
[3]; [14]
  Plant response rating, Blackgrass: 0
[3]; [15]
  Plant response rating, Blackgrass: 0
[3]; [16]
  Plant response rating, Blackgrass: 0
[3]; [17]
  Plant response rating, Blackgrass: 0
[3]; Preemergence, 31 g ai/ha
  Blackgrass plant response rating: 0
[3]; [18]
  Plant response rating, Blackgrass: 65
[3]; [19]
  Plant response rating, Blackgrass: 70
[3]; Preemergence, 250 g ai/ha
  Plant response rating (scale of 0 to 100), Blackgrass: 85
[4]; [14]
  Plant response rating, Ryegrass, Italian: 0
[4]; [15]
  Plant response rating, Ryegrass, Italian: 0
[4]; [16]
  Plant response rating, Ryegrass, Italian: 5
[4]; [17]
  Plant response rating, Ryegrass, Italian: 5
[4]; [20]
  Ryegrass, Italian plant response rating: 0
[4]; [21]
  Ryegrass, Italian plant response rating: 0
[4]; [19]
  Plant response rating, Ryegrass, Italian: 0
[4]; Preemergence, 250 g ai/ha
  Plant response rating (scale of 0 to 100), Ryegrass, Italian: 15
[5]; [14]
  Plant response rating, Galium: 5
[5]; [15]
  Plant response rating, Galium: 45
[5]; [16]
  Plant response rating, Galium: 60
[5]; [17]
  Plant response rating, Galium: 85
[5]; [20]
  Galium plant response rating: 0
[5]; [21]
  Galium plant response rating: 40
[5]; [19]
  Plant response rating, Galium: 85
[5]; Preemergence, 250 g ai/ha
  Plant response rating (scale of 0 to 100), Galium: 85
[6]; [14]
  Plant response rating, Corn: 0
[6]; [15]
  Plant response rating, Corn: 0
[6]; [16]
  Plant response rating, Corn: 10
[6]; [17]
  Plant response rating, Corn: 10
[6]; [20]
  Corn plant response rating: 10
[6]; [21]
  Corn plant response rating: 0
[6]; [19]
  Plant response rating, Corn: 85
[6]; Preemergence, 250 g ai/ha
  Plant response rating (scale of 0 to 100), Corn: 85
[7]; [14]
  Plant response rating, Morningglory: 5
[7]; [15]
  Plant response rating, Morningglory: 5
[7]; [16]
  Plant response rating, Morningglory: 35
[7]; [17]
  Plant response rating, Morningglory: 35
[7]; [20]
  Morningglory plant response rating: 5
[7]; [21]
  Morningglory plant response rating: 25
[7]; [19]
  Plant response rating, Morningglory: 5
[7]; Preemergence, 250 g ai/ha
  Plant response rating (scale of 0 to 100), Morningglory: 30
[8]; [14]
  Plant response rating, Nutsedge, Yellow: 0
[8]; [15]
  Plant response rating, Nutsedge, Yellow: 0
[8]; [16]
  Plant response rating, Nutsedge, Yellow: 0
[8]; [17]
  Plant response rating, Nutsedge, Yellow: 0
[8]; [20]
  Nutsedge, Yellow plant response rating: 0
[8]; [21]
  Nutsedge, Yellow plant response rating: 10
[8]; [19]
  Plant response rating, Nutsedge, Yellow: 0
[8]; Preemergence, 250 g ai/ha
  Plant response rating (scale of 0 to 100), Nutsedge, Yellow: 0
[9]; [14]
  Plant response rating, Barnyardgrass: 0
[9]; [15]
  Plant response rating, Barnyardgrass: 30
[9]; [16]
  Plant response rating, Barnyardgrass: 50
[9]; [17]
  Plant response rating, Barnyardgrass: 75
[9]; Preemergence, 31 g ai/ha
  Barnyardgrass plant response rating: 75
[9]; [18]
  Plant response rating, Barnyardgrass: 85
[9]; [19]
  Plant response rating, Barnyardgrass: 90
[9]; Preemergence, 250 g ai/ha
  Plant response rating (scale of 0 to 100; 0 is no effect, 100 is complete control), Barnyardgrass: 95
[10]; [14]
  Plant response rating, Velvetleaf: 0
[10]; [15]
  Plant response rating, Velvetleaf: 0
[10]; [16]
  Plant response rating, Velvetleaf: 25
[10]; [17]
  Plant response rating, Velvetleaf: 35
[10]; [20]
  Velvetleaf plant response rating: 0
[10]; [21]
  Velvetleaf plant response rating: 5
[10]; [19]
  Plant response rating, Velvetleaf: 45
[10]; Preemergence, 250 g ai/ha
  Plant response rating (scale of 0 to 100), Velvetleaf: 40

## O=C1NCC(c2ccc(C(F)(F)F)cc2)C1C(=O)Nc1ccccc1F (stereo not drawn) [Compound 231]
[1]; [11]
  Plant response rating, Pigweed: 70
[1]; [12]
  Plant response rating, Pigweed: 0
[1]; Postemergence, 500 g ai/ha
  Pigweed plant response rating (0 to 100 scale, 0 is no effect, 100 is complete control): 40
[1]; [13]
  Plant response rating, Pigweed: 70
[2]
  Plant response rating, Wheat: 20
  Wheat plant response rating (0 to 100 scale, 0 is no effect, 100 is complete control): 30
[3]; Preemergence, 31 g ai/ha
  Blackgrass plant response rating: 50
[3]; [18]
  Plant response rating, Blackgrass: 85
[3]; [19]
  Plant response rating, Blackgrass: 85
[3]; Preemergence, 250 g ai/ha
  Plant response rating (scale of 0 to 100), Blackgrass: 90
[4]; [20]
  Ryegrass, Italian plant response rating: 0
[4]; [21]
  Ryegrass, Italian plant response rating: 10
[4]; [19]
  Plant response rating, Ryegrass, Italian: 15
[4]; Preemergence, 250 g ai/ha
  Plant response rating (scale of 0 to 100), Ryegrass, Italian: 15
[5]; [20]
  Galium plant response rating: 0
[5]; [21]
  Galium plant response rating: 85
[5]; [19]
  Plant response rating, Galium: 90
[5]; Preemergence, 250 g ai/ha
  Plant response rating (scale of 0 to 100), Galium: 90
[6]; [20]
  Corn plant response rating: 0
[6]; [21]
  Corn plant response rating: 5
[6]; [19]
  Plant response rating, Corn: 70
[6]; Preemergence, 250 g ai/ha
  Plant response rating (scale of 0 to 100), Corn: 85
[7]; [20]
  Morningglory plant response rating: 0
[7]; [21]
  Morningglory plant response rating: 0
[7]; [19]
  Plant response rating, Morningglory: 0
[7]; Preemergence, 250 g ai/ha
  Plant response rating (scale of 0 to 100), Morningglory: 20
[8]; [20]
  Nutsedge, Yellow plant response rating: 0
[8]; [21]
  Nutsedge, Yellow plant response rating: 0
[8]; [19]
  Plant response rating, Nutsedge, Yellow: 0
[8]; Preemergence, 250 g ai/ha
  Plant response rating (scale of 0 to 100), Nutsedge, Yellow: 0
[9]; Preemergence, 31 g ai/ha
  Barnyardgrass plant response rating: 85
[9]; [18]
  Plant response rating, Barnyardgrass: 90
[9]; [19]
  Plant response rating, Barnyardgrass: 95
[9]; Preemergence, 250 g ai/ha
  Plant response rating (scale of 0 to 100; 0 is no effect, 100 is complete control), Barnyardgrass: 95
[10]; [20]
  Velvetleaf plant response rating: 10
[10]; [21]
  Velvetleaf plant response rating: 25
[10]; [19]
  Plant response rating, Velvetleaf: 35
[10]; Preemergence, 250 g ai/ha
  Plant response rating (scale of 0 to 100), Velvetleaf: 60

Reference: patent US10294202B2, “Pyrrolidinones as herbicides” (FMC Corporation, priority 2013, dated 2019)
